Assay results as given in BindingDB's records for patent US9796704 (SYMPHONY EVOLUTION, INC., 2017).
pIC50: −log10 of the molar value.

Assays:
Assay in all cases: AlphaScreen Assay
[1] = biological target: Ephrin type-A receptor 2 (Homo sapiens, UniProt P29317)
[2] = biological target: Receptor tyrosine-protein kinase erbB-2 (Homo sapiens, UniProt P04626)
[3] = biological target: Vascular endothelial growth factor receptor 1 (Homo sapiens, UniProt P17948)
[4] = biological target: T1, Ephrin type-B receptor 4 (Homo sapiens, UniProt P54760)
T1 sequence (P54760 whole entry): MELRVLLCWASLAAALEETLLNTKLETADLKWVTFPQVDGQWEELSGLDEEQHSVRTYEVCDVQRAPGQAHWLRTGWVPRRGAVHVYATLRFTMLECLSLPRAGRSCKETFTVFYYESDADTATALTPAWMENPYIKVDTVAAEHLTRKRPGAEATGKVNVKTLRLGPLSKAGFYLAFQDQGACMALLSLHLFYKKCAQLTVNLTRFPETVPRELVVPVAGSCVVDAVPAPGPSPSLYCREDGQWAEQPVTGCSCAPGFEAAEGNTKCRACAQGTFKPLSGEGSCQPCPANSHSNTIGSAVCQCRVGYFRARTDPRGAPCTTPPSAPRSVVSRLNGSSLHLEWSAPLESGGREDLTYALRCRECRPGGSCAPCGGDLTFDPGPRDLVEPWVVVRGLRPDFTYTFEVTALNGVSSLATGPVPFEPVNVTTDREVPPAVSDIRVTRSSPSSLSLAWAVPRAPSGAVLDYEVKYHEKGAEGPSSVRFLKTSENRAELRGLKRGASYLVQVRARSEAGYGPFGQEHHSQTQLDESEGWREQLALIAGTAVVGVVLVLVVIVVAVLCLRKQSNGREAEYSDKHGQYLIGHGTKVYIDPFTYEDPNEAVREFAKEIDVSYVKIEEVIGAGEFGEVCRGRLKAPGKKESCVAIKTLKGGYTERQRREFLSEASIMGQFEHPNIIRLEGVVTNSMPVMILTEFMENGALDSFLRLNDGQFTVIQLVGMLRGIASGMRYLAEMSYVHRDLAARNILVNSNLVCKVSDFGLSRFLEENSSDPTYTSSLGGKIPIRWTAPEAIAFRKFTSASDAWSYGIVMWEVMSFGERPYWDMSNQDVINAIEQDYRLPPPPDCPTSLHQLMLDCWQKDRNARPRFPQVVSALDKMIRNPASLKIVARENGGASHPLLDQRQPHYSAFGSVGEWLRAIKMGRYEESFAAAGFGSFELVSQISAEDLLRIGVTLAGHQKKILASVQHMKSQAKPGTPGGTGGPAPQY

[5] = biological target: Vascular endothelial growth factor receptor 2 (Homo sapiens, UniProt P35968)
Chain of Vascular endothelial growth factor receptor 2 (P35968 whole entry): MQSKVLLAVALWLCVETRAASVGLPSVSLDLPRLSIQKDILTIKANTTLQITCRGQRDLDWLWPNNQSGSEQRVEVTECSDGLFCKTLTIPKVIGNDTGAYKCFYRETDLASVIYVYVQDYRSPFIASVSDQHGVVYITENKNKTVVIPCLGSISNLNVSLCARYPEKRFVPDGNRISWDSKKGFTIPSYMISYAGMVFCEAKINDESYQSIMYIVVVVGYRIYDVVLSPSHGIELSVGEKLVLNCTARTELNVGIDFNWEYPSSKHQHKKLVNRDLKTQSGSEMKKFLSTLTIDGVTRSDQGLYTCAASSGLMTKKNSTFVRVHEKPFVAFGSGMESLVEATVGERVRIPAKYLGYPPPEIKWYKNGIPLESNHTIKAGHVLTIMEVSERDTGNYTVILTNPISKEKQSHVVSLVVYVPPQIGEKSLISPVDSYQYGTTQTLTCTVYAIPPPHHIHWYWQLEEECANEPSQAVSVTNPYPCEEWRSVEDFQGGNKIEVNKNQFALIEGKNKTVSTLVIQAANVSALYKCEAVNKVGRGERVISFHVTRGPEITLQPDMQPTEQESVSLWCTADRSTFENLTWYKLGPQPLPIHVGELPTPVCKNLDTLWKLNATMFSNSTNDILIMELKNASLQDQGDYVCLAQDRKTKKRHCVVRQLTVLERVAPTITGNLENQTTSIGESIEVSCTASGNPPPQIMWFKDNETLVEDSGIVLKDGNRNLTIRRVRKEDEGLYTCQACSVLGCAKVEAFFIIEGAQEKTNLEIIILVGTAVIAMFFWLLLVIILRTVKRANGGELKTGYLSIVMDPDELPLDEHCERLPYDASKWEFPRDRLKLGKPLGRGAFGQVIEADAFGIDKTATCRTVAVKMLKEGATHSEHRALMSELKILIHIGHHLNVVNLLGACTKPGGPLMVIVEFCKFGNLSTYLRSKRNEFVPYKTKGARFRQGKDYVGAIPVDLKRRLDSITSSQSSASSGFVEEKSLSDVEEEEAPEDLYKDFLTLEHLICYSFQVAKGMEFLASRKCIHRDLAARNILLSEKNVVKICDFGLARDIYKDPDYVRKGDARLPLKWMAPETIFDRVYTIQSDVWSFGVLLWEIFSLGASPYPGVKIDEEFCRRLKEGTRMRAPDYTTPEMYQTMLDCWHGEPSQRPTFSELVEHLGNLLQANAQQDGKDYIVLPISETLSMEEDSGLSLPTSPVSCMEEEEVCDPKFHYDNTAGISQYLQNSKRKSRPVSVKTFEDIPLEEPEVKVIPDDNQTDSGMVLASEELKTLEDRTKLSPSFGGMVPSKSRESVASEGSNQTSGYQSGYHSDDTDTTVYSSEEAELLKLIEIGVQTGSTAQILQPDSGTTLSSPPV

Chain of Vascular endothelial growth factor receptor 1 (P17948 whole entry): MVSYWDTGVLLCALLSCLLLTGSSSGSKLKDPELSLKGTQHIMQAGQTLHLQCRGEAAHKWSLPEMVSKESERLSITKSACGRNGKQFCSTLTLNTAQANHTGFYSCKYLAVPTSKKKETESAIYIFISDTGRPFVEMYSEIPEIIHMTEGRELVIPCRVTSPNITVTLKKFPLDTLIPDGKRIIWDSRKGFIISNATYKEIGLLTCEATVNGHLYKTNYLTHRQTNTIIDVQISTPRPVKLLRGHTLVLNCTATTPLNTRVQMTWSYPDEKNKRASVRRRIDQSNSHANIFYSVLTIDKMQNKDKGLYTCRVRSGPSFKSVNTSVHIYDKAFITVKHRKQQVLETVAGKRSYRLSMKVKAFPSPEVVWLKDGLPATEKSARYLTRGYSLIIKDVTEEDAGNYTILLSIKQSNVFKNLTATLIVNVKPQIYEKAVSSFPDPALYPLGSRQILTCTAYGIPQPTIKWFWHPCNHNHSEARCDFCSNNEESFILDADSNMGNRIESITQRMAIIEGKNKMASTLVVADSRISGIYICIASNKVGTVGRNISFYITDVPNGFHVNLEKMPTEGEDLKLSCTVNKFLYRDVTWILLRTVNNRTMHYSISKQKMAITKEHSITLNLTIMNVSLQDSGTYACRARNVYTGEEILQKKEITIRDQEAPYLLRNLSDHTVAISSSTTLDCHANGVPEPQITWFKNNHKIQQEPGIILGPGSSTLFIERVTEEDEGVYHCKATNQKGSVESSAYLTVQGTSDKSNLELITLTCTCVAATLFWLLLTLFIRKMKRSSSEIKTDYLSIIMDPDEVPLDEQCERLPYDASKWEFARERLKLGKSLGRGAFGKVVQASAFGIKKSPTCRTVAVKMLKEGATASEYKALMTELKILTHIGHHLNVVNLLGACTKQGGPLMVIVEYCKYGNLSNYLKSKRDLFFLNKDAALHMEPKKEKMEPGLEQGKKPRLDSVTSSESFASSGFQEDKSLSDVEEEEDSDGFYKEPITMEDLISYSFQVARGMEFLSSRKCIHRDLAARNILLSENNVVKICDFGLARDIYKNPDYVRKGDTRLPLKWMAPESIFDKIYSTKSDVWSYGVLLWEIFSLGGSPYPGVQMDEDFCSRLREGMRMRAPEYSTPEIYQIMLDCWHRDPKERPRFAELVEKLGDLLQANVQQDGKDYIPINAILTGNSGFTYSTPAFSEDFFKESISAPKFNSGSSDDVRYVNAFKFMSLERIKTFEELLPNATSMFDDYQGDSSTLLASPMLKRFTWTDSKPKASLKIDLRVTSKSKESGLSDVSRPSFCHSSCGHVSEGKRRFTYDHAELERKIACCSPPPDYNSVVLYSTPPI
Chain of Receptor tyrosine-protein kinase erbB-2 (P04626 whole entry): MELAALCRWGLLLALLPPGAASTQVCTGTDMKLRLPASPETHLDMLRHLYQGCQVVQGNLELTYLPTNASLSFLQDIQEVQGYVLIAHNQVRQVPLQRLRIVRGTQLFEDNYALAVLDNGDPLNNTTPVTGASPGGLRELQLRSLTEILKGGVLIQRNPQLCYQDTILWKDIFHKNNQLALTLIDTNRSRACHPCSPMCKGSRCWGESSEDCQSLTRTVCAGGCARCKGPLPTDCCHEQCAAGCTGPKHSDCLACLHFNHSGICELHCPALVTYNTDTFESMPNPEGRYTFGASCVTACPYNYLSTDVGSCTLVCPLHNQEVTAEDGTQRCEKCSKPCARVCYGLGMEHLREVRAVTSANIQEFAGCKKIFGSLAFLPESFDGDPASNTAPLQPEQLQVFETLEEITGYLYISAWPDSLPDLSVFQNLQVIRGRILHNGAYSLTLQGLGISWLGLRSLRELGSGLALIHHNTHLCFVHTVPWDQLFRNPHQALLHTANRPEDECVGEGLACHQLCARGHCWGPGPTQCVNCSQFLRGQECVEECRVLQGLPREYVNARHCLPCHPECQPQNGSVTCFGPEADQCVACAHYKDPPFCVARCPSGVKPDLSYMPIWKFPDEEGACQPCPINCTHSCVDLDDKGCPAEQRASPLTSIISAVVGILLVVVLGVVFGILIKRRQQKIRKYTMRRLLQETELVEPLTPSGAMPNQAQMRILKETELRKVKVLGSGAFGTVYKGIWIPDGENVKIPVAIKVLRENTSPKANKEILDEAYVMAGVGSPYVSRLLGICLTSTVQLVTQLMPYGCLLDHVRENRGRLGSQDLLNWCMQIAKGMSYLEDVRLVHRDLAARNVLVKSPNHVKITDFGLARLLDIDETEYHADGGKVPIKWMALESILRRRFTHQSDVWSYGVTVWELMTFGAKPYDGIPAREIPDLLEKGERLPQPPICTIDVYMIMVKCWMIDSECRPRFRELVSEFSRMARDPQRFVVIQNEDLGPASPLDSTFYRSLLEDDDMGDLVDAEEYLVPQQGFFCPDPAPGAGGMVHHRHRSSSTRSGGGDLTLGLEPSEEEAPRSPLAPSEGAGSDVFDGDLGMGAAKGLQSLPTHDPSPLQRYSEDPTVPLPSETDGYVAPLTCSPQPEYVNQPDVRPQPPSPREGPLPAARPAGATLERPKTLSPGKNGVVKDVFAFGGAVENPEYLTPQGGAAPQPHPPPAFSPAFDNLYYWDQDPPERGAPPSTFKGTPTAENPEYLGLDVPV
Chain of Ephrin type-A receptor 2 (P29317 whole entry): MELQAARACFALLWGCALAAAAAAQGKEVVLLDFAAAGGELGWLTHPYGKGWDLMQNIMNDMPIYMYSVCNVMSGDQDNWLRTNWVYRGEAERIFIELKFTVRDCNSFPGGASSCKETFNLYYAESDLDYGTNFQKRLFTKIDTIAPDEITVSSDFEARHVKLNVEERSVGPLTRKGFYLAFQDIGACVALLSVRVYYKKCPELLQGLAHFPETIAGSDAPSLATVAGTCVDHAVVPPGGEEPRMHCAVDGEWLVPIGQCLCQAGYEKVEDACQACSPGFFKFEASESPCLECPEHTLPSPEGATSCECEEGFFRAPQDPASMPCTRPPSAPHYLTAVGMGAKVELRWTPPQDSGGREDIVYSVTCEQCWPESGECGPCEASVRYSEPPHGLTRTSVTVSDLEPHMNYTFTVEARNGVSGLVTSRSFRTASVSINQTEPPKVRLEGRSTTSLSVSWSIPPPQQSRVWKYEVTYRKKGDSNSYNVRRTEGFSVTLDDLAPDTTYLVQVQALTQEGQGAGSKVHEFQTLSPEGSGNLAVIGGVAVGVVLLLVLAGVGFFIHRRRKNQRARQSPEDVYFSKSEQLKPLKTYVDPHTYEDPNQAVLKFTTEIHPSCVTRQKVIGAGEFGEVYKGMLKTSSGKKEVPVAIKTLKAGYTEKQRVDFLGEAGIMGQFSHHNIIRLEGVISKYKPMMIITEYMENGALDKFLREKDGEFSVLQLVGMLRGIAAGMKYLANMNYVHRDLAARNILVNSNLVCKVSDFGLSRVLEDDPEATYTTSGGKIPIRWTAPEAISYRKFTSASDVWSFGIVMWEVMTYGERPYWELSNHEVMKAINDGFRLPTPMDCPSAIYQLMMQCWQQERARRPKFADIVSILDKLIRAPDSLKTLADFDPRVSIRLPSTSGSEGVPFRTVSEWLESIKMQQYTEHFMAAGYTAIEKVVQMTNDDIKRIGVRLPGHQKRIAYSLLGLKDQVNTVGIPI

Compound	IC50 [1]	IC50 [2]	IC50 [3]	IC50 [4]	IC50 [5]	pIC50 [2]	pIC50 [5]	pIC50 [3]	pIC50 [4]
COc1cc2c(Nc3ccc(Cl)c(Cl)c3F)ncnc2cc1OC[C@@H]1CN2CCOCC2CO1 (stereo not given in full) [US9796704, Entry 22]	in the range around 10500 nM	in the range around 525 nM	in the range around 525 nM	in the range around 10500 nM	in the range around 10500 nM	–	–	–	–
COc1cc2c(Nc3cc(Cl)c(Br)cc3F)ncnc2cc1OC[C@H]1CN2CCC[C@@H]2CO1 [US9796704, Entry 32]	in the range around 10500 nM	–	in the range around 10500 nM	in the range around 525 nM	in the range around 525 nM	–	–	–	–
COc1cc2c(Nc3ccc(Br)c(Cl)c3Cl)ncnc2cc1OC[C@H]1C[C@@H]2CN(C)C[C@@H]2C1 [US9796704, Entry 14]	–	in the range around 525 nM	in the range around 525 nM	–	–	–	–	–	–
COc1cc2c(Nc3ccc(F)c(Cl)c3F)ncnc2cc1OC[C@@H]1CN2CCC[C@H]2CO1 [US9796704, Entry 38]	in the range around 525 nM	–	in the range around 10500 nM	in the range around 525 nM	–	> 7.30	> 7.30	–	–
COc1cc2c(Nc3ccc(Br)c(Cl)c3F)ncnc2cc1OC[C@@H]1CN2CCC[C@H]2C(=O)N1 [US9796704, Entry 53]	in the range around 10500 nM	in the range around 525 nM	in the range around 10500 nM	in the range around 525 nM	–	–	–	–	–
COc1cc2c(Nc3ccc(Cl)c(Cl)c3)ncnc2cc1OCCNC1CC2CCC(C1)N2C (stereo not given) [US9796704, Entry 55]	in the range around 10500 nM	in the range around 525 nM	in the range around 10500 nM	–	–	–	–	–	–
COc1cc2c(Nc3ccc(Br)c(Cl)c3F)ncnc2cc1OC[C@@H]1CN2CCOCC2CO1 (stereo not given in full) [US9796704, Entry 23]	in the range around 10500 nM	–	in the range around 525 nM	in the range around 10500 nM	in the range around 10500 nM	–	–	–	–
COc1cc2c(Nc3ccc(Br)c(Cl)c3Cl)ncnc2cc1OC[C@@H]1CN2CCOCC2CO1 (stereo not given in full) [US9796704, Entry 27]	–	in the range around 525 nM	–	–	–	–	–	> 7.30	–
COc1cc2c(Nc3ccc(Br)c(Cl)c3Cl)ncnc2cc1OC[C@H]1CN2CCOCC2CO1 (stereo not given in full) [US9796704, Entry 18]	–	in the range around 525 nM	in the range around 525 nM	–	–	–	–	–	> 7.30
COc1cc2c(Nc3ccc(Cl)c(Cl)c3)ncnc2cc1OC[C@H]1C[C@@H]2CN(C)C[C@@H]2C1 [US9796704, Entry 15]	–	–	in the range around 525 nM	–	–	> 7.30	–	–	–
COc1cc2c(Nc3ccc(Br)c(Cl)c3F)ncnc2cc1OCC1CO[C@@H]2[C@@H](OC)CO[C@H]12 (stereo not given in full) [US9796704, Entry 44]	–	in the range around 10500 nM	in the range around 525 nM	–	–	–	–	–	–
COc1cc2c(Nc3ccc(Br)c(Cl)c3F)ncnc2cc1OC[C@@H]1C[C@@H]2CN(CC(C)C)C[C@@H]2C1 [US9796704, Entry 17]	in the range around 525 nM	in the range around 10500 nM	in the range around 525 nM	–	in the range around 525 nM	–	–	–	–
COc1cc2c(Nc3ccc(Cl)c(Cl)c3)ncnc2cc1OCCC1CC2CCC(C1)N2C (stereo not given) [US9796704, Entry 57]	–	in the range around 525 nM	in the range around 10500 nM	in the range around 525 nM	–	–	–	–	–
COc1cc2c(Nc3ccc(Cl)c(Cl)c3F)ncnc2cc1OC[C@H]1CN2CCC[C@@H]2C(=O)N1C [US9796704, Entry 54]	in the range around 10500 nM	–	in the range around 10500 nM	in the range around 525 nM	in the range around 10500 nM	–	–	–	–
COc1cc2c(Nc3cc(Cl)c(Cl)cc3F)ncnc2cc1OC[C@H]1C[C@@H]2CN(C)C[C@@H]2C1 [US9796704, Entry 12]	–	–	–	–	–	> 7.30	–	> 7.30	–
COc1cc2c(Nc3ccc(Cl)c(Cl)c3F)ncnc2cc1OC[C@@H]1CN2CCC[C@H]2CO1 [US9796704, Entry 36]	in the range around 10500 nM	in the range around 10500 nM	in the range around 10500 nM	in the range around 10500 nM	–	–	–	–	–
COc1cc2c(Nc3ccc(Cl)c(Cl)c3F)ncnc2cc1OC[C@@H]1C[C@@H]2CN(CC(C)C)C[C@@H]2C1 [US9796704, Entry 8]	–	in the range around 10500 nM	in the range around 10500 nM	in the range around 525 nM	–	–	–	–	–
COc1cc2c(Nc3ccc(Br)c(Cl)c3Cl)ncnc2cc1O[C@H]1CO[C@H]2[C@@H]1OC[C@@H]2OC [US9796704, Entry 66]	–	in the range around 10500 nM	–	–	–	–	< 4.70	< 4.70	–
COc1cc2c(Nc3cc(Cl)c(Br)cc3F)ncnc2cc1OC[C@H]1C[C@@H]2CN(C)C[C@@H]2C1 [US9796704, Entry 13]	–	–	–	–	–	> 7.30	–	> 7.30	–
COc1cc2c(Nc3ccc(F)c(Cl)c3F)ncnc2cc1OC[C@H]1C[C@@H]2CN(C)C[C@@H]2C1 [US9796704, Entry 11]	–	in the range around 525 nM	in the range around 525 nM	–	–	–	–	–	–
COc1cc2c(Nc3ccc(Cl)c(Cl)c3F)ncnc2cc1OC[C@@H]1C[C@@H]2CN(C(C)C)C[C@@H]2C1 [US9796704, Entry 1]	–	–	in the range around 525 nM	–	–	> 7.30	–	–	–
COc1cc2c(Nc3ccc(Cl)c(Cl)c3)ncnc2cc1OC1CC2CCC(C1)N2C (stereo not given) [US9796704, Entry 60]	in the range around 10500 nM	in the range around 525 nM	in the range around 525 nM	–	in the range around 10500 nM	–	–	–	–
CCN1C[C@H]2C[C@@H](COc3cc4ncnc(Nc5ccc(Br)c(Cl)c5F)c4cc3OC)C[C@H]2C1 [US9796704, Entry 16]	in the range around 525 nM	in the range around 525 nM	in the range around 525 nM	–	in the range around 525 nM	–	–	–	–
COc1cc2c(Nc3ccc(Br)c(Cl)c3F)ncnc2cc1OC[C@H]1C[C@@H]2CN(C)C[C@@H]2C1 [US9796704, Entry 10]	–	in the range around 525 nM	in the range around 525 nM	–	–	–	–	–	–
